Data as given in patent US20250129055A1, “GLUCOSIDE DERIVATIVE, AND PREPARATION METHOD THEREFOR AND APPLICATION THEREOF” (BEIJING INCREASE INNOVATIVE DRUG CO., LTD., priority 2020, published 2025).
One block for each compound: values may come before it.

Target: SGLT2 (Homo sapiens (Human), UniProt P31639)
Assay: In vitro SGLT2 inhibitory activity: 1-NBDG uptake by CHO-SGLT2 cells
Type: cell-based
Settings: for IC50: CHO-SGLT2 cells, 1-NBDG uptake, read-out: IC50 inhibiting SGLT2
Description: The effect of the compounds on SGLT2-mediated glucose uptake was investigated by establishing an SGLT2 overexpression cell model and using the fluorescent glucose (2-deoxy-1-[(7-nitro-2,1,3-benzoxadiazol-4-yl)amino]-D-glucose, 1-NBDG) tracer method to screen out candidate compounds with SGLT2 inhibitory activity.
The humanized SGLT2 overexpression cells (CHO-SGLT2) constructed from Chinese hamster ovary (CHO) cells were cultured in 1640 medium (Gibco) containing 10% fetal bovine serum (Gibco, 10270), subcultured at a ratio of 1:3, and replaced with new culture medium 3 times every week. Fluorescence detection cell culture plates and other culture flasks were purchased from Corning Company. […] Appropriate amounts of all compounds were weighed, prepared into 100 mM stock solutions with DMSO, and stored at 4° C. in the dark.
Before the 1-NBDG uptake test, CHO-SGLT2 cells were digested and seeded in a 96-well cell culture plate with a cell number of 40,000/well. After the cells were cultured for 48 h, the medium was discarded, and 100 μl of choline buffer was added to each well. After the cells were starved at 37° C. for 30 min, the choline buffer was discarded and 100 μl of the newly prepared Na^+ sodium buffer containing […] 1-NBDG and the test compounds (Compound) was added. The solvent DMSO was used as the negative control (Control) for the test compounds.
The Na^+ sodium buffer without 1-NBDG was used as the blank control (Blank). After 1 h of culture, the incubation solution was discarded. The cells were washed with choline buffer solution 3 times, and then 50 μl of neutral lysate was added to each well to lyse the cells on ice for 10 min. The fluorescence value of each well was detected using a multi-functional microplate reader at […].
At least 3 experimental replicates were set for each compound at indicated concentrations, and the data were expressed as mean±SEM. Uptake amount of 1-NBDG by cells=fluorescence value1-NBDG-fluorescence valueBlank. Inhibition rate on uptake amount of SGLT2 glucose (%)=(uptake amountcontrol−uptake amountcompound)/uptake amountcontrol×100%. Concentration-inhibition rate curves were plotted using Graphpad Prism software, and IC50 values were calculated accordingly.

Sequence of SGLT2 (P31639 whole entry): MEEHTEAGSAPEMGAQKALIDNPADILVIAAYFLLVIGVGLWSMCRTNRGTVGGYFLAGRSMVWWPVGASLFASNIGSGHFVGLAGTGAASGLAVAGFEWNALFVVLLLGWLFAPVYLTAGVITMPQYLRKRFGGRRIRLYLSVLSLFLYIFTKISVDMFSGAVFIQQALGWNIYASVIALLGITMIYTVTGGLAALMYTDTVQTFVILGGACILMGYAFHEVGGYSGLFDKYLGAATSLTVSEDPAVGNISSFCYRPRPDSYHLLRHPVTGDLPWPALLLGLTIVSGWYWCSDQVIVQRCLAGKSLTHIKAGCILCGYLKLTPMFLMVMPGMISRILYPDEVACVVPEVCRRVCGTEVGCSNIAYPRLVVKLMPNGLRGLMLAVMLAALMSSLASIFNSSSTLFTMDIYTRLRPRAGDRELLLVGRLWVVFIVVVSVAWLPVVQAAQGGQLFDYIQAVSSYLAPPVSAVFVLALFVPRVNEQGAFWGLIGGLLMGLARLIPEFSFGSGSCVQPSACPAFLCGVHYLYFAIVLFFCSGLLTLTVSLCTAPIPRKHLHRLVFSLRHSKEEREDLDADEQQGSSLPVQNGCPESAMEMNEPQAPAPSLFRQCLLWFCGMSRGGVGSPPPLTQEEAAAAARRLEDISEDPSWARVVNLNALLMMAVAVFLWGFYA

Structure (SMILES): CCOc1ccc(Oc2cc([C@H]3O[C@H](CO)[C@@H](O)[C@H](O)[C@H]3O)ccc2Cl)cc1 [Compound 3, (2R,3R,4R,5S,6R)-2-[4-chloro-3-(4-ethoxyphenoxy)phenyl]-6-(hydroxymethyl)oxane-3,4,5-triol]
IC50: 6.75 nM
Inhibition rate of compounds on SGLT2 (%) (compound concentration 1 × 10^−5 mol/L): 96.4 ± 8.4%
Inhibition rate of compounds on SGLT2 (%) (compound concentration 5 × 10^−7 mol/L): 78.7 ± 1.9%
Inhibition rate of compounds on SGLT2 (%) (compound concentration 5 × 10^−8 mol/L): 71.7 ± 1.7%
Inhibition rate of compounds on SGLT2 (%) (compound concentration 5 × 10^−9 mol/L): 42.8 ± 2.3%
Inhibition rate of compounds on SGLT2 (%) (compound concentration 5 × 10^−10 mol/L): 8.7 ± 2.1%
Inhibition rate of compounds on SGLT2 (%) (compound concentration 5 × 10^−11 mol/L): 3.7 ± 4.2%

Structure (SMILES): CS[C@H]1O[C@@H](c2ccc(C)c(Cc3ccc4c(c3)CCCO4)c2)[C@H](O)[C@@H](O)[C@@H]1O [Compound 8]
IC50: 0.356 nM

Structure (SMILES): OC[C@H]1O[C@@H](c2ccc(F)c(Cc3ccc4c(c3)OCCO4)c2)[C@H](O)[C@@H](O)[C@@H]1O [Compound 27]
IC50: 3.32 nM

Continued by falling IC50, values first:

IC50: 2.26 nM
Structure (SMILES): CS[C@H]1O[C@@H](c2cc3c(c(Cc4ccc5c(c4)OCCO5)c2)CCC3)[C@H](O)[C@@H](O)[C@@H]1O [Compound 5]

IC50: 1.01 nM
Structure (SMILES): CS[C@H]1O[C@@H](c2ccc(C)c(Cc3ccc4c(c3)CC4)c2)[C@H](O)[C@@H](O)[C@@H]1O [Compound 12]
